Experimental data published in the supplement of paper PMC11451515.

Tested on: SEM cells
Assay: cell viability relative to DMSO control; higher = less cytotoxic
Conditions: 48 h
Summary of the method: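 NOMO1 or SEM (500 cells/well) or P12-Ichikawa (1000 cells/well) leukemia cells were adapted for at least four passages in each medium. They were seeded in 1536-well plates (5 μl) and pin-dosed with library compounds in DMSO over an 11-point threefold series, 47 μM to 0.79 nM. CellTiter-Glo One luminescence was read after 48 h at 37°C. Viability is the per-plate percentage relative to DMSO wells, with cell-free wells as background.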

[1] = HPLM + 10% dialyzed FBS, 0.000781 µM
[2] = HPLM + 10% dialyzed FBS, 0.00234 µM
[3] = HPLM + 10% dialyzed FBS, 0.00702 µM
[4] = HPLM + 10% dialyzed FBS, 0.0211 µM
[5] = HPLM + 10% dialyzed FBS, 0.0632 µM
[6] = HPLM + 10% dialyzed FBS, 0.19 µM
[7] = HPLM + 10% dialyzed FBS, 0.569 µM
[8] = HPLM + 10% dialyzed FBS, 1.71 µM
[9] = HPLM + 10% dialyzed FBS, 5.12 µM
[10] = HPLM + 10% dialyzed FBS, 15.4 µM
[11] = HPLM + 10% dialyzed FBS, 46.1 µM
[12] = RPMI 5 mM glucose + 10% FBS, 0.000781 µM
[13] = RPMI 5 mM glucose + 10% FBS, 0.00234 µM
[14] = RPMI 5 mM glucose + 10% FBS, 0.00702 µM
[15] = RPMI 5 mM glucose + 10% FBS, 0.0211 µM
[16] = RPMI 5 mM glucose + 10% FBS, 0.0632 µM
[17] = RPMI 5 mM glucose + 10% FBS, 0.19 µM
[18] = RPMI 5 mM glucose + 10% FBS, 0.569 µM
[19] = RPMI 5 mM glucose + 10% FBS, 1.71 µM
[20] = RPMI 5 mM glucose + 10% FBS, 5.12 µM
[21] = RPMI 5 mM glucose + 10% FBS, 15.4 µM
[22] = RPMI 5 mM glucose + 10% FBS, 46.1 µM
[23] = RPMI 5 mM glucose + 10% dialyzed FBS, 0.000781 µM
[24] = RPMI 5 mM glucose + 10% dialyzed FBS, 0.00234 µM
[25] = RPMI 5 mM glucose + 10% dialyzed FBS, 0.00702 µM
[26] = RPMI 5 mM glucose + 10% dialyzed FBS, 0.0211 µM
[27] = RPMI 5 mM glucose + 10% dialyzed FBS, 0.0632 µM
[28] = RPMI 5 mM glucose + 10% dialyzed FBS, 0.19 µM
[29] = RPMI 5 mM glucose + 10% dialyzed FBS, 0.569 µM
[30] = RPMI 5 mM glucose + 10% dialyzed FBS, 1.71 µM
[31] = RPMI 5 mM glucose + 10% dialyzed FBS, 5.12 µM
[32] = RPMI 5 mM glucose + 10% dialyzed FBS, 15.4 µM
[33] = RPMI 5 mM glucose + 10% dialyzed FBS, 46.1 µM

| SMILES | cell viability [1] [%] | cell viability [2] [%] | cell viability [3] [%] | cell viability [4] [%] | cell viability [5] [%] | cell viability [6] [%] | cell viability [7] [%] | cell viability [8] [%] | cell viability [9] [%] | cell viability [10] [%] | cell viability [11] [%] | cell viability [12] [%] | cell viability [13] [%] | cell viability [14] [%] | cell viability [15] [%] | cell viability [16] [%] | cell viability [17] [%] | cell viability [18] [%] | cell viability [19] [%] | cell viability [20] [%] | cell viability [21] [%] | cell viability [22] [%] | cell viability [23] [%] | cell viability [24] [%] | cell viability [25] [%] | cell viability [26] [%] | cell viability [27] [%] | cell viability [28] [%] | cell viability [29] [%] | cell viability [30] [%] | cell viability [31] [%] | cell viability [32] [%] | cell viability [33] [%] |
| --- | --- | --- | --- | --- | --- | --- | --- | --- | --- | --- | --- | --- | --- | --- | --- | --- | --- | --- | --- | --- | --- | --- | --- | --- | --- | --- | --- | --- | --- | --- | --- | --- | --- |
| OC[C@H]1O[C@H]([C@H](O)[C@@H]1O)N2\C=C/C(=O)NC2=O | 107 | 107 | 107 | 115 | 123 | 124 | 122 | 103 | 115 | 92.7 | 90.7 | 96.8 | 105 | 102 | 102 | 107 | 91.9 | 114 | 78.3 | 93.2 | 78.3 | 86.1 | 101 | 110 | 103 | 106 | 92.8 | 117 | 108 | 91 | 105 | 94.3 | 88.3 |
| CC(C)(C)OC(=O)N[C@H]1CCCCC/C=C\[C@@H]2C[C@@]2(C(=O)N[S+](=O)([O-])C2CC2)NC(=O)[C@@H]2C[C@@H](OC(=O)N3Cc4cccc(F)c4C3)CN2C1=O | 71.4 | 83.9 | 83.5 | 75.7 | 97.3 | 89 | 92.1 | 79.8 | 84 | 86.6 | 80.2 | 96.1 | 99.7 | 84.5 | 73.4 | 102 | 88.9 | 101 | 103 | 93.4 | 90.2 | 85.4 | 85.2 | 91.9 | 93.4 | 105 | 94.9 | 98.5 | 121 | 115 | 93 | 91.6 | 81.3 |
| Clc1ccc(-c2nc3sccn3c2/C=N/OCc2ccc(Cl)c(Cl)c2)cc1 | 127 | 122 | 101 | 119 | 124 | 111 | 115 | 88.5 | 100 | 101 | 117 | – | – | – | – | – | – | – | – | – | – | – | 131 | 122 | 111 | 137 | 120 | 134 | 135 | 104 | 113 | 110 | 115 |
| C[C@@]12C(=O)OC(=O)[C@@]1(C)C1CCC2O1 | 118 | 103 | 112 | 112 | 114 | 107 | 112 | 95.1 | 87.1 | 6.65 | 4.55 | 105 | 113 | 112 | 112 | 112 | 110 | 124 | 104 | 73.1 | 5.81 | 4.32 | 120 | 116 | 110 | 124 | 120 | 113 | 114 | 96.8 | 58.2 | 6.57 | 4.36 |
| CC[C@H](NC1=C2N=C[NH]C2=NC=N1)C/3=N/C4=C(C(=CC=C4)F)C(=O)N3C5=CC=CC=C5 | 94.9 | 118 | 133 | 120 | 114 | 97.2 | 87.4 | 106 | 81.7 | 73.6 | 52.1 | 79.2 | 94.8 | 112 | 105 | 111 | 108 | 88.2 | 88.9 | 84.5 | 57.6 | 53.1 | 90.2 | 110 | 132 | 120 | 116 | 84.2 | 116 | 110 | 92.8 | 80.1 | 57.3 |
| O=C(Nc1cc(Cl)cc2c1[nH]c1cnccc12)c1cccnc1 | 121 | 121 | 116 | 134 | 124 | 122 | 118 | 141 | 133 | 127 | 113 | 109 | 108 | 96.3 | 117 | 126 | 125 | 128 | 129 | 138 | 121 | 124 | 113 | 107 | 109 | 108 | 100 | 98.5 | 116 | 125 | 123 | 128 | 117 |
| O=C(O)Cn1nnc(-c2cc(N3CCC(Oc4cc(F)ccc4Br)CC3)no2)n1 | 73.8 | 82.5 | 92.6 | 75.8 | 95.6 | 101 | 104 | 102 | 86.3 | 97.2 | 62.2 | 102 | 75.3 | 101 | 94.2 | 98 | 100 | 96.9 | 120 | 90.9 | 103 | 85.4 | 80.1 | 88.9 | 95.6 | 106 | 93.6 | 102 | 116 | 106 | 94 | 102 | 103 |
| CC(C)(C)NC(=O)Nc1cccc(Nc2ncc(F)c(NC(C)(C)CO)n2)c1 | 101 | 99.9 | 103 | 104 | 109 | 102 | 99.8 | 101 | 77.1 | 31.5 | 29.9 | 108 | 103 | 104 | 108 | 115 | 120 | 95.8 | 102 | 69.1 | 16.4 | 9.58 | 107 | 118 | 110 | 115 | 115 | 120 | 111 | 103 | 71.8 | 19.9 | 16 |
| C[C@@H]1COCCN1c1cc(C2([S@+](C)(=N)[O-])CC2)nc(-c2ccnc3[nH]ccc23)n1 | 90.4 | 100 | 98.5 | 77.8 | 102 | 93.4 | 95.3 | 40.6 | 21.5 | 21.5 | 14 | – | – | – | – | – | – | – | – | – | – | – | 81.8 | 96 | 114 | 74.4 | 130 | 102 | 66.3 | 42.4 | 24.8 | 20.6 | 10.7 |
| C[S+](=O)([O-])Nc1ccc([N+](=O)[O-])cc1Oc1ccccc1 | 95.8 | 103 | 99.8 | 104 | 117 | 121 | 107 | 104 | 107 | 109 | 62.9 | 88.4 | 111 | 98.6 | 90.5 | 106 | 95.7 | 108 | 105 | 103 | 82.7 | 17.2 | 103 | 112 | 124 | 110 | 109 | 102 | 95.8 | 106 | 106 | 104 | 54.3 |
| C[C@]12CC[C@@H]3c4ccc(O)cc4CC[C@H]3[C@@H]1[C@@H](O)[C@@H](O)[C@@H]2O | 104 | 119 | 112 | 115 | 116 | 127 | 123 | 86 | 125 | 99.9 | 84.1 | 87.8 | 125 | 110 | 82 | 102 | 88.5 | 94.2 | 80 | 99 | 99.4 | 38.8 | 101 | 110 | 120 | 118 | 121 | 132 | 126 | 90 | 129 | 103 | 64.5 |
| CC(C)N[C@@H]1CCn2c(=O)[nH]c3cccc(c32)[C@H]1O | 107 | 119 | 101 | 104 | 112 | 108 | 120 | 112 | 122 | 122 | 100 | – | – | – | – | – | – | – | – | – | – | – | 102 | 112 | 113 | 122 | 125 | 123 | 107 | 117 | 101 | 125 | 102 |
| CN(C)C1CCN(C(=O)c2ccc(NC(=O)Nc3nc(N4CCOCC4)nc(N4CCOCC4)n3)cc2)CC1 | 83.9 | 92.1 | 81.5 | 67.4 | 61.7 | 49.7 | 41.8 | 31.2 | 30.9 | 23.8 | 19.3 | 87.9 | 78.9 | 94.3 | 75.1 | 65.3 | 48.4 | 39.3 | 27.4 | 25.6 | 17.8 | 11.9 | 78.1 | 85.8 | 79.4 | 70.9 | 57.2 | 52.5 | 41.9 | 33.4 | 32.1 | 22 | 14.6 |
| CC(C)c1nc(CN(C)C(=O)N[C@H](C(=O)N[C@@H](Cc2ccccc2)C[C@H](O)[C@H](Cc2ccccc2)NC(=O)OCc2cncs2)C(C)C)cs1 | 84.8 | 90.5 | 101 | 87.5 | 96.2 | 91.6 | 85 | 85.1 | 81.5 | 62.6 | 74.4 | 94.9 | 103 | 110 | 103 | 90.7 | 89.7 | 84.8 | 88.8 | 87.3 | 80.1 | 87.5 | 104 | 113 | 98.4 | 85 | 106 | 86.1 | 94.8 | 105 | 92.4 | 88.1 | 99.8 |
| CN[C@H]1CCC2=CC(=C(OC)C(=C2C/3=C/C=C(OC)\C(=O)/C=C13)OC)OC | 108 | 102 | 64.8 | 23 | 24.1 | 28.6 | 23.3 | 18.4 | 13.4 | 12 | 4.23 | 123 | 122 | 85 | 16.8 | 20.8 | 21.6 | 18 | 14.3 | 9.18 | 7.14 | 2.84 | 97.1 | 88.9 | 62.8 | 17.8 | 21.4 | 23.9 | 20.4 | 12.6 | 9.12 | 7.84 | 3.33 |
| COC(=O)C[C@](O)(CCCC(C)(C)O)C(=O)O[C@@H]1C(OC)=CC23CCCN2CCc2cc4c(cc2[C@H]13)OCO4 (stereo not given in full) | 106 | 103 | 108 | 108 | 105 | 120 | 119 | 109 | 94.5 | 92.5 | 102 | 98.4 | 101 | 106 | 98.1 | 111 | 111 | 95.9 | 89.6 | 84.3 | 96.9 | 93.3 | 104 | 100 | 104 | 106 | 97.2 | 103 | 105 | 97.5 | 99.7 | 99.9 | 102 |
